Data taken from patent US20210292315A1, “SELENIUM-CONTAINING ISOXAZOLAMINE COMPOUND, PREPARATION METHOD THEREFOR, AND USE THEREOF” (SHANGHAI XINGYE PHARMACEUTICAL TECHNOLOGY CO., LTD, priority 2018, published 2021).

Experiments:
TNF-α = TNF-α activity inhibiting assay: LPS-stimulated peripheral blood, TNF-α by ELISA; type: cell-based, human; settings: Homo sapiens, LPS 10 ng/mL, 6 hours, diluted peripheral blood from healthy volunteers, read-out: TNF-α inhibition (%)
Protocol: Methods: Peripheral blood from healthy volunteers was collected with EDTA anticoagulant tubes. After being diluted 5-fold with 1640 medium (Gibco, USA), the blood was added to 96-well cell culture plates (Costar, USA) and then treated with 10 μL solution of the compound of general formula (I) of the present invention in DMSO (Sigma, USA), and the final concentration of DMSO was 0.2%. After incubation for 60 minutes in an incubator at 37° C. under 5% CO2, 10 μL LPS (Sigma, USA) was added to the reaction system, and the final concentration was 10 ng/mL. After further culturing for 6 hours in the incubator at 37° C. under 5% CO2, the supernatant was collected. The content of TNF-α was determined by ELISA (BD Biosciences, USA). Absorbance was detected at OD450 nm with a microplate reader, with GD 650 nm as reference. The control, a solution containing 0.2% DMSO medium, was as 0% inhibition. Raw data and standard curves were recorded. The four-parameter drug inhibition curve was plotted by XL-fit software and the inhibition rate of each compound was calculated.

[1] = Glutathione peroxidase (GPx)-like activity assay, coupled NADPH oxidation at 340 nm; type: biochemical; settings: compound 50 μm, GSH 2.0 mM, pH 7.5, 25° C.; for Initial rate v0, Cum-OOH: peroxide Cum-OOH 1.6 mM; for Initial rate v0, H2O2: peroxide H2O2 1.6 mM; for Initial rate v0, tBuOOH: peroxide tBuOOH 1.6 mM
Protocol: Method: GPX activity of selenium compounds was assayed by ultraviolet spectrophotometry. Glutathione (2.0 mM), EDTA (1 mM), glutathione disulfide reductase (1.7 units mL^−1), and nicotinamide adenine dinucleotide phosphate […] (NADPH; 0.4 mM) were mixed intopotassium phosphate buffer (0.1 M, pH=7.5). The selenium compounds (50 μm) was added to the above mixture At room temperature (25° C.), and the reaction was started by the addition of H2O2, tBuOOH or Cum-OOH (1.6 mM) respectively. The initial reduction rates were calculated from the rate of NADPH oxidation at 340 nm in a GSH assay. Each initial rate was measured at least three times and calculated from the first 5-10% of the reaction by using 6.22 mM^−1 cm^−1 as the molar extinction coefficient for NADPH. For the peroxidase activity, the rates were corrected for the background reaction between peroxide and thiol.

[2] = biological target: T1, Thioredoxin Reductase 1 (TrxR1) (Homo sapiens, UniProt Q16881); test: Thioredoxin reductase 1 (TrxR1) activity inhibiting assay, NADPH consumption at 340 nm; type: biochemical; settings: insulin/Trx/NADPH system, absorbance 340 nm; read-out: TrxR inhibition IC50
T1 sequence (Q16881 151-649 limits assumed): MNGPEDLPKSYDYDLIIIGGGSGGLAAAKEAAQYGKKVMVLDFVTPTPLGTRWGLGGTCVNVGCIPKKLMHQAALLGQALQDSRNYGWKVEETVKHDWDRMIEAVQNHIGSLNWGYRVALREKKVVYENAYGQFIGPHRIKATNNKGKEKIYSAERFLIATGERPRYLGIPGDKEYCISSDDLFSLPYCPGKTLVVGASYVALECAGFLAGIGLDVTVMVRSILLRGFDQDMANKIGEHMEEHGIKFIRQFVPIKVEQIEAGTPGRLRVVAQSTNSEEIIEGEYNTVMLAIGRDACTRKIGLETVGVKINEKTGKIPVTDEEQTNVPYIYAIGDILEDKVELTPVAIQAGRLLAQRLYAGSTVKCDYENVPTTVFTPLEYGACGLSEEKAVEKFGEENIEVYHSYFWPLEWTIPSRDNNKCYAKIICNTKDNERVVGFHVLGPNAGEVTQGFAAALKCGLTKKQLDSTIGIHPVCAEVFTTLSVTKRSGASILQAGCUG
Protocol: Working solutions: 0.119 mg/mL of TrxR working solution preparation: 175 μL of TrxR stock solution (0.34 mg/mL) was diluted to 500 μL; 1 mM NADPH working solution preparation, NADPH (5 mg) was dissolved in 12 mL potassium phosphate buffer; 1 mM DTNB working solution preparation: 25 mg DTNB was dissolve in 63 mL DMSO; potassium phosphate buffer system preparation: 0.2 mg/mL bovine serum albumin (BSA) and 1 mM EDTA were added to potassium phosphate buffer at pH 7.4 (K2HPO4/KH2PO4).
Methods: The TrxR1 inhibitory activity study of selenium-containing isoxazolamines in vitro. Insulin, NADPH, Trx, the samples and TrxR1 were added to a microcuvette in order, and subsequently added the work buffer (0.1 mol/L potassium phosphate/2 mmol/L EDTA) to a total volume of 0.5 mL. The concentration of each component in the obtained reaction system is: insulin 130 μmol/L, NADPH […] (Sigma), Trx 4 μmol/L, the added substrate (the selenium-containing isoxazolamines treated samples). After determination of the initial absorption at 340 nm, the enzymatic reaction was started by adding 20 μg extracted TrxR1 proteins, the decrease in absorbance at 340 nm was monitored. One unit of enzymatic activity is defined as the consumption. The activity can be calculated from the extinction coefficient of NADPH, and the unit of enzyme activity is defined as: 1U=ΔA340 nm/min×1000, the TR activity could be calculated with U/L. The results are shown in table 2.

SMILES	IC50 (TNF-α)	Initial rate v0, Cum-OOH [1]	Initial rate v0, H2O2 [1]	Initial rate v0, tBuOOH [1]	IC50 [2]
COc1ccc2[se]n(C3CCC(=O)NC3=O)c(=O)c2c1 (stereo not drawn) [Compound 12]	1 to 10 µM	116.8 ± 7.2 μm min^−1	121.7 ± 2.2 μm min^−1	54.5 ± 5.7 μm min^−1	< 5 µM
O=c1c2ccccc2[se]n1-c1nc2ccccc2s1 [Compound 21]	10 to 100 µM	94.5 ± 4.2 μm min^−1	115.3 ± 2.6 μm min^−1	35.7 ± 4.2 μm min^−1	5 to 50 µM
O=C1c2ccccc2[Se](=O)N1c1nc2ccc(OC(F)(F)F)cc2s1 (stereo not drawn) [Compound 34]	10 to 100 µM	12.4 ± 0.3 μm min^−1	39.7 ± 1.4 μm min^−1	14.2 ± 1.1 μm min^−1	50 to 100 µM
